Source: US11833147B2, “Procaspase 3 activation by combination therapy” (The Board of Trustees of the University of Illinois, priority 2012, dated 2023)

Assays:
[1] = in mammals; cited from earlier work
U-937 (lymphoma) cells = experiment: U-937 (lymphoma) cell death, PAC-1 with second agent; format: cell-based; conditions: 0-15 μM PAC-1, 0 nM second agent, 8 hours, FIG. 4
Method: FIG. 2. Effects of PAC-1 with Etoposide on U-937 (lymphoma) cell death. Dashed lines represent the level of purely additive effects.
FIG. 3. Effects of PAC-1 with Velcade® (bortezomib) on U-937 (lymphoma) cell death. […] Cell death was measured after 6 hours in bortezomib.
FIG. 4. Effects of PAC-1 with staurosporine on U-937 (lymphoma) cell death. […] Cell death was measured after 8 hours in staurosporine.

[2] = more active than irinotecan itself; cited from earlier work

SMILES | safety [1] | cell death with PAC-1 alone (U-937 (lymphoma) cells) | activity relative to irinotecan [2]
C=CCc1cccc(/C=N/NC(=O)CN2CCN(Cc3ccccc3)CC2)c1O [PAC-1, 2-(4-benzylpiperazin-1-yl)-N-[(2-hydroxy-3-prop-2-enyl-phenyl)methylideneamino]acetamide] | safe | Little or no cell death | –
CCc1c2c(nc3ccc(O)cc13)-c1cc3c(c(=O)n1C2)COC(=O)[C@]3(O)CC [SN-38] | – | – | 200 times
